According to patent US9676720B2, “Substituted biaryl compound” (UBE INDUSTRIES, LTD., priority 2013, dated 2017):
Like-named read-outs stand apart in the source and are kept apart here.

Legend:
[1] = biological target: human EP2 receptor (Homo sapiens (Human), UniProt P43116); test: Measurement of EP2 receptor binding action; settings: membrane fraction of HEK293 cells expressing human EP2 receptor; [3H]prostaglandin E2 10 nM
Protocol: The membrane fraction was recovered on glass fiber filter paper (GF/B, manufactured by Whatman) using a cell harvester (M30R, manufactured by Brandel), and after washing with a buffer solution (10 mM MES-KOH (pH 6.0), 10 mM MgCl2), radioactivity was measured with a liquid scintillation analyzer (2000CA, manufactured by Packard). […] Ki=IC50/(1+([^3H]prostaglandin E2 concentration/Kd))
Note that the dissociation constant (Kd value) was calculated by Scatchard analysis.

[2] = system: Pulmonary fibroblasts derived from a human fetus (IMR90); test: Test for inhibition of pulmonary fibroblast proliferation (BrdU incorporation); format: cell-based
Protocol: Measurement of inhibition effect of pulmonary fibroblast proliferation was performed by modifying the method of Huang et al. (American Journal of Respiratory Cell and Molecular Biology, 39, 482 (2008)). Pulmonary fibroblasts derived from a human fetus (IMR90, purchased from American Type Culture Collection) were cultured in DMEM medium containing 10% FBS and seeded at 1×10^4 cells/well of a 96-well plate. After culturing for approximately 8 hours in a carbon dioxide incubator, the medium was replaced with FBS-free DMEM medium and the culturing was performed for one night. On the following day, the medium was replaced with a new FBS-free DMEM medium, and then a test compound dissolved in dimethyl sulfoxide (final concentration: 0.1%) and FGF (final concentration: 10 ng/mL, manufactured by Wako Pure Chemical Industries, Ltd.) were added thereto and allowed to stand undisturbed in a carbon dioxide incubator. After 22 hours, a BrdU labeling solution (manufactured by Roche) was added and culturing was performed for another 2 hours. After the completion of the culturing, amount of BrdU incorporation was measured using Cell Proliferation ELISA BrdU (colorimetric) (manufactured by Roche). The concentration of the test compound required to inhibit BrdU incorporation to 50% (IC50 value) was calculated by non-linear regression of the test compound concentration and the amount of BrdU incorporation using EXSAS (Ver. 8.0.0, manufactured by Arm Systex).

[3] = system: mouse pulmonary fibrosis models (bleomycin); test: Test for inhibition of pulmonary fibrosis in mouse (bleomycin model, lung hydroxyproline); format: in vivo, ICR mice; settings: dose of 0.3 mg/kg, intratracheal administration twice per day for 28 days
Protocol: Test for inhibition effect of pulmonary fibrosis using mouse was performed by partially modifying the method of Oku et al. (European Journal of Pharmacology, 590, 400 (2008)). […] These models were used as a bleomycin control group and a test compound administration group. Similarly, a normal group was subjected to administration of saline for 5 days. For the test, each group used 7 or more mice. The test compound solution for the administration was prepared by dissolving the test substance to the equimolar amount of 0.1 mol/L aqueous sodium hydroxide solution, and then neutralizing by adding a phosphate buffer solution (PBS) which was a medium. The test compound was administered via intratracheal administration twice per day from the start date of the test, for 28 days. For the normal group and bleomycin control group, the medium was administered similarly via intratracheal administration. For the intratracheal administration, the MicroSprayerTM (IA-1C-M, manufactured by PennCentury) was used. On the day following the completion of 28-day administration, the mice were left bleeding to die while subjecting the mice for inhalation anesthesia, to collect the lungs. […] The amount of hydroxyproline (HYP) in the lung hydrolysis solution, which is an indicator of collagen accumulation, was measured by the method of Woessner et al. (Archives of Biochemistry and Biophysics, 93, 440 (1961)). […] After cooling, 200 μL of the colored solution was placed on a microplate, and the absorbance (measurement wavelength: 570 nm, reference wavelength: 620 nm) was measured using a plate reader (SPECTRA FLOUR, manufactured by Tecan). A HYP solution having a specified concentration was reacted in the same manner to create a calibration curve, and the HYP concentration of each sample was calculated. From the calculated HYP concentration, the amount of HYP in the lung per 100 g of body weight was calculated. The inhibiting rate of HYP formation in the lung upon administration of the test compound was calculated using the formula described below. […]

[4] = Homo sapiens, IMR-90, IMR90, FGF 10 ng/mL, BrdU incorporation, read-out: IC50 value (nM) of inhibition effect of pulmonary fibroblast proliferation
[5] = Homo sapiens, IMR-90, read-out: IC50 value (nM) of inhibition effect of pulmonary fibroblast proliferation

human EP2 receptor, sequence (P43116 whole entry): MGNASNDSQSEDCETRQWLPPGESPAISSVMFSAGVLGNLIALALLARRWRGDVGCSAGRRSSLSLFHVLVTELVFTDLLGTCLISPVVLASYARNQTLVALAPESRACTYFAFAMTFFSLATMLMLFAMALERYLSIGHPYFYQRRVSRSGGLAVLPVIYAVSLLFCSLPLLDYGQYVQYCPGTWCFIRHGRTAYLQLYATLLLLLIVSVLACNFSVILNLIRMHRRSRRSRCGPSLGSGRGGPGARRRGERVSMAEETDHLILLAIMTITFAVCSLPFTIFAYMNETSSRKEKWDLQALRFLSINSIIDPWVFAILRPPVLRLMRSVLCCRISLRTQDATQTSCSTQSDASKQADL

Ki [1] | SMILES | IC50 [2, 4] | IC50 [2, 5] | Inhibiting rate of HYP formation in the lung [3] | other results
1.5 nM | CCC=Cc1cccc(-c2ccc(CN(Cc3cccc(NCC(=O)O)n3)S(=O)(=O)c3ccccn3)cc2)c1 [Comparative example 9, (6-{[3′-(1-Butenyl)biphenyl-4-ylmethyl](pyridin-2-ylsulfonyl)aminomethyl}-pyridin-2-ylamino)acetic acid] | 0.75 nM | – | – | –
3.2 nM | CCOc1cc(-c2ccc(CN(Cc3cccc(NCC(=O)O)n3)S(=O)(=O)c3ccccn3)cc2)ccn1 [Comparative example 15, (6-{[4-(2-Ethoxypyridin-4-yl)benzyl](pyridin-2-ylsulfonyl)aminomethyl}-pyridin-2-ylamino)acetic acid] | > 1 nM | – | – | –
– | O=C(O)CNc1cccc(CN(Cc2ccc(-c3ccc(Cl)cc3)cc2)S(=O)(=O)c2cccnc2)n1 [Comparative example 4, {6-[(4′-Chlorobiphenyl-4-ylmethyl)(pyridin-3-ylsulfonyl)aminomethyl]-pyridin-2-ylamino}acetic acid] | – | > 1 nM | – | –
– | CCOc1ccc(-c2ccc(CN(Cc3cccc(NCC(=O)O)n3)S(=O)(=O)c3ccccn3)cc2)cc1 [Comparative example 14] | > 1 nM | – | – | –
– | CCOc1cccc(-c2ccc(CN(Cc3cccc(NCC(=O)O)n3)S(=O)(=O)c3cccs3)cc2)c1 [Example 11, {6-[(3′-Ethoxybiphenyl-4-ylmethyl)(thiophen-2-ylsulfonyl)aminomethyl]-pyridin-2-ylamino}acetic acid] | 0.049 nM | – | – | –
– | Cc1cnc(-c2ccc(CN(Cc3cccc(NCC(=O)O)n3)S(=O)(=O)c3ccccn3)cc2)s1 [Comparative example 5] | > 1 nM | – | – | –
– | CCOc1cccc(-c2ccc(CN(Cc3cccc(NCC(=O)O)n3)S(=O)(=O)c3ccccc3)cc2)c1 [Example 10, {6-[(Benzenesulfonyl)(3′-ethoxybiphenyl-4-ylmethyl)aminomethyl]pyridin-2-ylamino}acetic acid] | – | 0.035 nM | ≥ 70% | –
– | CC#Cc1cccc(-c2ccc(CN(Cc3cccc(NCC(=O)O)n3)S(=O)(=O)c3ccccn3)cc2)c1 [Example 4, (6-{[3′-(1-Propynyl)biphenyl-4-ylmethyl](pyridin-2-ylsulfonyl)aminomethyl}-pyridin-2-ylamino)acetic acid] | – | 0.016 nM | ≥ 70% | –
– | CC#Cc1cccc(-c2ccc(CN(Cc3cccc(NCC(=O)O)n3)S(=O)(=O)c3ccccc3)cc2)c1 [Example 16, (6-{(Benzenesulfonyl)[3′-(1-propynyl)biphenyl-4-ylmethyl]aminomethyl}-pyridin-2-ylamino)acetic acid] | – | 0.0088 nM | ≥ 70% | –

SMILES | Ki [1] | IC50 [2, 4] | IC50 [2, 5] | Inhibiting rate of HYP formation in the lung [3] | other results
CC#Cc1cccc(-c2ccc(CN(Cc3cccc(NCC(=O)O)n3)S(=O)(=O)c3ccsc3)cc2)c1 [Example 18] | 0.99 nM | – | – | – | IC50 ([2]; IMR90, FGF 10 ng/mL, BrdU incorporation, read-out: IC50 value (nM) of inhibition effect of pulmonary fibroblast proliferation): 0.0042 nM
